Measurements reported in patent US20250066319A1, “NOVEL ACID ADDITION SALT AND CRYSTALLINE FORM OF (2R, 3S)-2-(3-(4,5-DICHLORO-1H-BENZO[d]IMIDAZOL-1-YL)PROPYL)PIPERIDIN-3-OL” (Daewoong Pharmaceutical Co., Ltd., priority 2021, published 2025).
Counter-ions that a name gives are not always drawn.

What was measured:
[1] = Hygroscopicity test (weight change in desiccators of constant relative humidity); format: physicochemical; parameters: scale not given here; settings: room temperature, one day
Description: The hygroscopicity tests of the acid addition salts prepared in Examples 1-1 to 1-6 and Comparative Example 1 were performed.
After one day, the change in weight was measured, then transferred to another desiccator and the previous experiment was repeated. At this time, for sorption analysis, the weight change was measured by moving the sample from a low-humidity desiccator to a high-humidity desiccator, and for desorption analysis, the weight change was measured by transferring the sample from a high-humidity desiccator with high humidity to a low-humidity desiccator.

[2] = target: T1, PRS protein (prolyl-tRNA synthetase, PRS portion of EPRS) (Homo sapiens, UniProt P07814); assay: PRS enzyme activity inhibition experiment; format: biochemical; settings: [3H]proline, 37° C., 5 to 10 minutes
T1 construct: the portion corresponding to PRS in cDNA of EPRS was subcloned; made in house
T1 sequence (P07814 1007-1512 limits assumed): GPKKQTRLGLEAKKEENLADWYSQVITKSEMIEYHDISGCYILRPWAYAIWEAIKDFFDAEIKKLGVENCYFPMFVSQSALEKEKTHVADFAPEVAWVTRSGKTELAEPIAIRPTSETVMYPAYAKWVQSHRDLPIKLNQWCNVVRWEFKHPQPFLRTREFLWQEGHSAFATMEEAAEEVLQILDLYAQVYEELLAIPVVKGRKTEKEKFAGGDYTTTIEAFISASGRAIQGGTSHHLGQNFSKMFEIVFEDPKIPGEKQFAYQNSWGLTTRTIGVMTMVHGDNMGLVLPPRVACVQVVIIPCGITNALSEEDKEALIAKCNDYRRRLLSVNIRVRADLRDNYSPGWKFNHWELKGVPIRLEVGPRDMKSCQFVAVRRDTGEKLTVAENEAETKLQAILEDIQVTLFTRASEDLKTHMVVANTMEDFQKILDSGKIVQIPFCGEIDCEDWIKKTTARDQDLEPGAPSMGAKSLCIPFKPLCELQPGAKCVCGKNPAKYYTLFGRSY
Description: IC50 values of PRS enzyme activity inhibition of the (2R,3S)-2-(3-(4,5-dichloro-1H-benzo[d]imidazol-1-yl)propyl)piperidin-3-ol monohydrochloride prepared in Example 1-1 were measured as follows.
Specifically, the portion corresponding to PRS in cDNA of EPRS was subcloned, and the obtained high-purity PRS protein was purified and used in the experiment. The compounds (1 μM) prepared in Examples were added into the reaction buffer (20 mM KPO4 (pH 7.4), 6 mM MgAc, 5 mM ATP, […] tRNA, 0.5 mM DTT, 20 mCi[^3H]proline (1 mCi/mL)) and allowed to react at 37° C. for 5 to 10 minutes. The reaction was terminated with 3M paper that was in advance dried by addition of 5% TCA. The radioactivity was measured using a liquid scintillation counter. % Inhibition and IC50 values of the compounds were calculated and analyzed using Microsoft Excel or Sigma Plot 8.0.

[3] = Differential scanning calorimetry analysis after severe test with respect to temperature; format: physicochemical; settings: high temperature condition (60° C.), 1 week and 8 weeks; Monohydrochloride
Description: For (2R,3S)-2-(3-(4,5-dichloro-1H-benzo[d]imidazol-1-yl)propyl)piperidin-3-ol monohydrochloride prepared in Example 1-1 and (2R,3S)-2-(3-(4,5-dichloro-1H-benzo[d]imidazol-1-yl)propyl)piperidin-3-ol dihydrochloride prepared in Comparative Example 1, each beaker was taken out 1 week and 8 weeks after the start of the test from the desiccator where the severe tests with respect to temperature were in progress, and the differential scanning calorimetry analysis was performed. At this time, the differential scanning calorimetry analysis was performed using a differential scanning calorimeter (DSC Q20, manufactured by TA Instruments) in a tightly closed pan under nitrogen purge at a scan rate of 10° C./min while raising the temperature from 20° C. to 300° C.

[4] = Stability confirmation: severe test with respect to moisture, HPLC peak area of main component; format: physicochemical; settings: 93% RH, open beaker, Monohydrochloride
Description: (§1) The acid addition salts prepared in some Examples and Comparative Examples were subjected to stability tests against high temperature and high humidity.
And, the severe tests with respect to moisture were performed by placing 50 mg of a sample in a 10 ml beaker, and measuring the content of impurities using HPLC (Azura, KNAUER, P6.1 1 L, DAD 6.1 L) after 1 week, 2 weeks, 4 weeks, and 8 weeks while storing the sample in a 93% RH desiccator in a state that the lid was not closed so that the sample has sufficient contact with the moisture in the air.
(§2) At a fixed time after the start of the test, one vial or beaker was taken out from each time point (the number of samples per test: n=1), and impurities were analyzed using HPLC under the conditions shown in Table 3 below. Then, the peak area was determined through integration for all the detected peaks, and then the relative peak area (%) for the main component was calculated and expressed as an average value.

[5] = Stability confirmation: severe test with respect to temperature, HPLC peak area of main component; format: physicochemical; settings: 60° C., relative humidity less than 10%, Monohydrochloride
Description: as §1
Specifically, the severe tests with respect to temperature were performed by placing 50 mg of a sample in a vial, closing the lid, and then measuring the content of impurities using HPLC (Azura, KNAUER, P6.1 1 L, DAD 6.1 L) after 1 week, 2 weeks, 4 weeks, and 8 weeks while storing in a chamber at 60° C. and a relative humidity of less than 10%.
as §2

O[C@H]1CCCN[C@@H]1CCCn1cnc2c(Cl)c(Cl)ccc21 [Example 1-1, (2R,3S)-2-(3-(4,5-dichloro-1H-benzo[d]imidazol-1-yl)propyl)piperidin-3-ol Monohydrochloride]
weight change, desorption ([1]; 11% RH, Monohydrochloride): 100.8 | weight change, desorption ([1]; 33% RH, Monohydrochloride): 101.2 | weight change, desorption ([1]; 54% RH, Monohydrochloride): 100.8 | weight change, desorption ([1]; 75% RH, Monohydrochloride): 101.7 | weight change, sorption ([1]; 11% RH): 100 | weight change, sorption ([1]; 33% RH, Monohydrochloride): 100 | weight change, sorption ([1]; 54% RH, Monohydrochloride): 101 | weight change, sorption ([1]; 75% RH, Monohydrochloride): 101.6 | weight change, sorption ([1]; 93% RH, Monohydrochloride): 101.6 | IC50 [2]: 74 nM | change in differential scanning calorimetry analysis pattern [3]: does not show any change in differential scanning calorimetry analysis pattern | relative peak area for the main component (HPLC) ([4]; after 1 week): 99.8% | relative peak area for the main component (HPLC) ([4]; after 2 weeks): 99.9% | relative peak area for the main component (HPLC) ([4]; after 4 weeks): 99.8% | relative peak area for the main component (HPLC) ([4]; after 8 weeks): 99.9% | relative peak area for the main component (HPLC) ([4]; initial): 99.9% | relative peak area for the main component (HPLC) ([5]; after 1 week): 99.9% | relative peak area for the main component (HPLC) ([5]; after 2 weeks): 99.8% | relative peak area for the main component (HPLC) ([5]; after 4 weeks): 99.9% | relative peak area for the main component (HPLC) ([5]; after 8 weeks): 99.8% | relative peak area for the main component (HPLC) ([5]; initial): 99.9%
